Experimental data reported in patent publication US11046672B2, “Indolinones compounds and their use in the treatment of fibrotic diseases” (RESPIVERT LIMITED, priority 2015, dated 2021).
Where “and” joins values, the source holds several entries; their conditions need not be identical. Identical values can stand only once.

What was measured:
[1] = test system: MRC5 cells; assay: Cell viability assay in MRC5 cells (MTT)
[2] = molecular target: T1, PDGFRβ (Homo sapiens (Human), UniProt P09619); assay: PDGF-BB induced phosphorylation of PDGFRβ in fibroblasts (MRC5 cells, HTRF); format: cell-based; settings: MRC5 cells; n = 1 unless otherwise indicated; read-out: PDGFBB-induced PDGFRβ phosphorylation in MRC5 cells (IC50)
T1 sequence (P09619 33-1106): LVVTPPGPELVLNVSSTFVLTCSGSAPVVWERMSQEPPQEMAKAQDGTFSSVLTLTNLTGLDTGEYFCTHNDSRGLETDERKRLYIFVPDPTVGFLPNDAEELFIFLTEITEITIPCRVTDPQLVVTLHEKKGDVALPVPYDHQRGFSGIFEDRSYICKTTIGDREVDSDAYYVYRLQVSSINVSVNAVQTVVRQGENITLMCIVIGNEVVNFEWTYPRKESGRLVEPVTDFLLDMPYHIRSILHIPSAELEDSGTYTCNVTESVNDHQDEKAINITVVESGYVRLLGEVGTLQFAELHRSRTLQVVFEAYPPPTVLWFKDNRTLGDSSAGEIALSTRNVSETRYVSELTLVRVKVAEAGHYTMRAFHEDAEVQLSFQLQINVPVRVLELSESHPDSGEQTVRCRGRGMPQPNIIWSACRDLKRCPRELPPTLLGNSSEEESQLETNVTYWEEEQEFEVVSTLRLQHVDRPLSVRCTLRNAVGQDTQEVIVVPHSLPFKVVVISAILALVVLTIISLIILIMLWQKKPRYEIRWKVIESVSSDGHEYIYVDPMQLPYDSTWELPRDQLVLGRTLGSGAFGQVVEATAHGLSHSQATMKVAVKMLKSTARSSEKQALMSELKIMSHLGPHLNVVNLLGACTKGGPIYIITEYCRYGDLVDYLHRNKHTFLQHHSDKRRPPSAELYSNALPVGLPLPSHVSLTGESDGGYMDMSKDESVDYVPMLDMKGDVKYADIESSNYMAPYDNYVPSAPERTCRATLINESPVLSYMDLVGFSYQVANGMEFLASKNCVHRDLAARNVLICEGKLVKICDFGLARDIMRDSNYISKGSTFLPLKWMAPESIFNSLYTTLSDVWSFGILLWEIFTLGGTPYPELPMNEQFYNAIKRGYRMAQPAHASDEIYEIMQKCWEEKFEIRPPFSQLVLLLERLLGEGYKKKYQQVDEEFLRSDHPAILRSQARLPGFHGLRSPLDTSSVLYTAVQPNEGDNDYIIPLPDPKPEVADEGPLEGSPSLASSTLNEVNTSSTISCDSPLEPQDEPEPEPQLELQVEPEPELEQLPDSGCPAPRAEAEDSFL

[3] = molecular target: T1, PDGFRβ; settings: read-out: Ki PDGFRβ; mean, n = 2 unless otherwise indicated
[4] = PAMPA permeability assay; format: in vitro ADME; settings: for recovery at 5 hr, 10 μM: pH 7, PAMPA; for Papp at 5 h, 10 μM: pH 7, pH 7, 10 μM
[5] = PAMPA, donor and acceptor compartments

Row | Structure (SMILES) | Cell viability at 100 nM (%) [1] [%] | Cell viability at 300 nM (%) [1] | Cell viability at 1000 nM (%) [1] | IC50 [2] [nM] | Ki [3] [nM] | recovery at 5 hr, 10 μM [4, 5] [%] | Papp at 5 h, 10 μM ([4]; PAMPA, 5 hr) [×10⁻⁶ cm/s] | % Recovery [4, 5] | Mean Papp ([4]; pH 7, 10 μM, 5 hr)
1 | COC(=O)c1ccc2c(c1)NC(=O)/C2=C(\Nc1ccc(C(=O)NOCCN2CCCCC2)cc1)c1ccccc1 [Example 8, (Z)-Methyl 2-oxo-3-(phenyl((4-((2-(piperidin-1-yl)ethoxy)carbamoyl)phenyl)amino)methylene)indoline-6-carboxylate] | 93.4 | 95.7% | 91% | 21.5 | 27.8 |  |  |  | 
2 | CNC(=O)CN1CCN(CCON(C)C(=O)c2ccc(N/C(=C3\C(=O)Nc4cc(C(=O)OC)c(C)cc43)c3ccccc3)cc2)CC1 [Example 9, (Z)-Methyl 5-methyl-3-(((4-(methyl(2-(4-(2-(methylamino)-2-oxoethyl)piperazin-1-yl)ethoxy)carbamoyl)phenyl)amino)(phenyl)methylene)-2-oxoindoline-6-carboxylate] | 129.9 | 96.3% | 88.6% | 8.45 |  | 82.9 | 0.0761 |  | 
3 | COC(=O)c1ccc2c(c1)NC(=O)/C2=C(\Nc1ccc(S(=O)(=O)N(C)OC)cc1)c1ccccc1 [Example 11] | 104.8 | 91.5 (n = 2) % | 94.8 (n = 2) % | 15.3 |  |  |  |  | 
4 | COC(=O)c1ccc2c(c1)NC(=O)/C2=C(\Nc1ccc(C(=O)NOCCN2CCOCC2)cc1)c1ccccc1 [Example 12] | 104.8 | 101.7% | 79.4% |  | 11.6 | 41 | 0.564 |  | 
5 | COC(=O)c1ccc2c(c1)NC(=O)/C2=C(\Nc1ccc(C(=O)N(C)OCCN2CCN(C)CC2)cc1)c1ccccc1 [Example 14] | 110.8 | 96.9% | 87.5% |  | 11.1 | 57.2 | 0.434 |  | 
6 | COC(=O)c1ccc2c(c1)NC(=O)/C2=C(\Nc1ccc(C(=O)NOCCN2CCOCC2)c(C)c1)c1ccccc1 [Example 16] | 79 | 59.9% | 51.9% |  | 14.1 |  |  |  | 
7 | COC(=O)c1ccc2c(c1)NC(=O)/C2=C(\Nc1ccc(C(=O)NOCCN2CCN(C)CC2)c(C)c1)c1ccccc1 [Example 17] | 83 | 90.5% | 92.5% |  | 11.7 | 91.9 | 0.0142 |  | 
8 | COC(=O)c1ccc2c(c1)NC(=O)/C2=C(\Nc1ccc(C(=O)NOCCN(C)C)c(F)c1)c1ccccc1 [Example 20] | 75.5 | 81.7% | 90.7% |  | 11.1 |  | 0.0305 | 91.7% and 66.5% | 0.0296 10^−6 cm s^−1
9 | COC(=O)c1ccc2c(c1)NC(=O)/C2=C(\Nc1ccc(C(=O)N(OC)C2CCN(C)CC2)cc1)c1ccccc1 [Example 21] | 95.5 | 86.6% | 53% | 6.79 | 10.2 |  |  |  | 
10 | COC(=O)c1ccc2c(c1)NC(=O)/C2=C(\Nc1ccc(C(=O)N(C)OCCN(C)C)c(C)c1)c1ccccc1 [Example 22] | 102 | 74.1% | 39.2% | 6.68 | 10 |  |  |  | 
11 | COC(=O)c1ccc2c(c1)NC(=O)/C2=C(\Nc1ccc(C(=O)N(CCN(C)C)OC)cc1)c1ccccc1 [Example 23] | 93.1 | 85.9% | 67.9% |  | 12.2 | 51.8 | 20 |  | 
12 | COC(=O)c1ccc2c(c1)NC(=O)/C2=C(\Nc1ccc(C(=O)N2CCN(C)CCO2)cc1)c1ccccc1 [Example 24] | 85.4 | 104.7% | 103.1% |  | 15.5 | 71.8 | 44.8 |  | 
